Results reported in patent US7858790B2, “Modulators of muscarinic receptors” (Vertex Pharmaceuticals Incorporated, priority 2006, dated 2010).

What was measured:
M1 muscarinic receptor = molecular target: T1, M1 muscarinic receptor (Homo sapiens, UniProt P11229); assay: Functional mobilization of intracellular calcium (FLIPR) in CHO cells expressing M1 muscarinic receptor; assay type: cell-based; settings: for M1 Activity: CHO cells expressing M1, calcium mobilization; for Emax: CHO, 100% efficacy is the maximum response obtained with the Carbachol control
T1 construct: expressed in transfected cells; host or cells: CHO (M1-CHO recombinant cell line)
T1 sequence (P11229 1-460): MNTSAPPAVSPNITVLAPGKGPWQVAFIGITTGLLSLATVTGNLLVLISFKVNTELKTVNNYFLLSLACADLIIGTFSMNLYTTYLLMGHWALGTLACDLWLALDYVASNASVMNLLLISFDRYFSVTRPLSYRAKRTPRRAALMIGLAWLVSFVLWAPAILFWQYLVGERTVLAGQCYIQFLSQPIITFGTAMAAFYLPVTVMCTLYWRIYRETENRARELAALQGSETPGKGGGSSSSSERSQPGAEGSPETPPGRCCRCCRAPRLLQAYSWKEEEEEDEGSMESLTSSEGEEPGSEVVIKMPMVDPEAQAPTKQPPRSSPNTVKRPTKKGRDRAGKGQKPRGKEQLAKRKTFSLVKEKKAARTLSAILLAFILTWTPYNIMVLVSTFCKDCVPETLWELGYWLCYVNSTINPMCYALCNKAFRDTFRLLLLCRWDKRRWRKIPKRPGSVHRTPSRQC
Outline: (§1)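 CHO cells loaded with Fluo-3 or Calcium 3 dye in pH 7.4 bath buffer with 1 mM probenecid, 0.5% DMSO. Agonist mode: compound added directly; inhibition mode: 15 min pre-incubation, then carbachol at EC80 (or co-application). Fluorescence recorded 60 s on FLIPR; efficacy relative to carbachol maximum.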

M4 muscarinic receptor = molecular target: T2, M4 muscarinic receptor (Homo sapiens, UniProt P08173); assay: Functional mobilization of intracellular calcium (FLIPR) in CHO cells expressing M4 muscarinic receptor; assay type: cell-based; settings: for M4 Activity: CHO cells expressing M4, calcium mobilization; for Emax: CHO, 100% efficacy is the maximum response obtained with the Carbachol control
T2 construct: expressed in transfected cells; host or cells: CHO (M4-CHO recombinant cell line)
T2 sequence (P08173 1-479): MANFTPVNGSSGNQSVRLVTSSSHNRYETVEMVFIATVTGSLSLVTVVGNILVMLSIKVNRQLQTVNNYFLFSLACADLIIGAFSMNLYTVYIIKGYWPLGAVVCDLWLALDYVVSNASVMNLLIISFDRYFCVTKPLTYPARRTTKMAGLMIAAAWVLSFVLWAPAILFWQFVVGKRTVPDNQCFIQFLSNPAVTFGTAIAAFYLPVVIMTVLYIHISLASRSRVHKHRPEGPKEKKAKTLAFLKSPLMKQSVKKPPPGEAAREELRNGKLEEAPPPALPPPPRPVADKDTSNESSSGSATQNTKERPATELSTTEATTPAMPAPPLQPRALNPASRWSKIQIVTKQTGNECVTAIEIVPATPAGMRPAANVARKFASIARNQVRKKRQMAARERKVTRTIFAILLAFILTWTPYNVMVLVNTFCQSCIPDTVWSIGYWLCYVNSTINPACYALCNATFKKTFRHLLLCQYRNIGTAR
Outline: as §1

Row | SMILES | M1 Activity (M1 muscarinic receptor) | Emax (M1 muscarinic receptor) [%] | M4 Activity (M4 muscarinic receptor) | Emax (M4 muscarinic receptor) [%]
1 | CCOC(=O)N1C2CCC1CC(N1CCC3(C=C(C(=O)NC(CC)CC)c4ccccc43)CC1)C2 (centres unmarked) [compound 75] | ++ (activity was measured to be from 2.0 μM to 10.0 μM) | 25 to 100 | +++ (activity was measured to be less than 2.0 μM) | 25 to 100
2 | CNC(=O)C1=CC2(CCN(CCC(C)CCCC(C)(C)OC)CC2)c2ccccc21 (centres unmarked) [compound 19] | + (activity was measured to be greater than 10.0 μM) | 25 to 100 | + (activity was measured to be greater than 10.0 μM) | < 25
3 | CCC(CC)NC(=O)C1=CC2(CCN(C3CCN(C(=O)OC)CC3)CC2)c2ccccc21 [compound 71] | + (activity was measured to be greater than 10.0 μM) | < 25 | +++ (activity was measured to be less than 2.0 μM) | 25 to 100
4 | CNC(=O)C1=CC2(CCN(CCC(C)C)CC2)c2ccccc21 [compound 15] | + (activity was measured to be greater than 10.0 μM) | 25 to 100 | +++ (activity was measured to be less than 2.0 μM) | 25 to 100
5 | CCC(CC)NC(=O)C1=CC2(CCN(C3C[C@@H]4CC[C@@H]3C4)CC2)c2ccccc21 (stereo in doubt) [Compound No. 14, 1′-(bicyclo[2.2.1]heptan-2-yl)-N-(pentan-3-yl)spiro[indene-1,4′-piperidine]-3-carboxamide] | – | < 25 | – | 25 to 100
6 | CN(C)C(=O)C1=CC2(CCN(C3CCCCC3)CC2)c2ccccc21 [compound 61] | + (activity was measured to be greater than 10.0 μM) | < 25 | +++ (activity was measured to be less than 2.0 μM) | 25 to 100
7 | CC(C)NC(=O)C1=CCC2(CCN(CCC(C)(C)C)CC2)c2ccccc21 [compound 52] | + (activity was measured to be greater than 10.0 μM) | < 25 | + (activity was measured to be greater than 10.0 μM) | < 25
8 | CNC(=O)C1=CC2(CCN(C3C[C@@H]4CC[C@@H]3C4)CC2)c2ccccc21 (stereo in doubt) [Compound No. 38, 1′-(bicyclo[2.2.1]heptan-2-yl)-N-methylspiro[indene-1,4′-piperidine]-3-carboxamide] | + (activity was measured to be greater than 10.0 μM) | 25 to 100 | +++ (activity was measured to be less than 2.0 μM) | 25 to 100
9 | CN(C)C(=O)C1=CCC2(CCN(C3C[C@@H]4CC[C@@H]3C4)CC2)c2ccccc21 (some centres unmarked) [compound 74] | + (activity was measured to be greater than 10.0 μM) | < 25 | ++ (activity was measured to be from 2.0 μM to 10.0 μM) | < 25
10 | CN(C)C(=O)C1=CC2(CCN(C3C[C@@H]4CC[C@@H]3C4)CC2)c2ccccc21 (some centres unmarked) [compound 64] | + (activity was measured to be greater than 10.0 μM) | < 25 | +++ (activity was measured to be less than 2.0 μM) | 25 to 100
11 | CCC(CC)NC(=O)C1=CC2(CCN(C3CCN(C(=O)C(C)C)CC3)CC2)c2ccccc21 [compound 22] | + (activity was measured to be greater than 10.0 μM) | < 25 | + (activity was measured to be greater than 10.0 μM) | < 25
12 | O=C(NC1CC1)C1=CC2(CCN(CC3CC4C=CC3C4)CC2)c2ccccc21 (centres unmarked) [compound 32] | + (activity was measured to be greater than 10.0 μM) | 25 to 100 | +++ (activity was measured to be less than 2.0 μM) | 25 to 100
13 | CNC(=O)C1=CC2(CCN(CC3CC4C=CC3C4)CC2)c2ccccc21 (centres unmarked) [compound 69] | +++ (activity was measured to be less than 2.0 μM) | 25 to 100 | +++ (activity was measured to be less than 2.0 μM) | 25 to 100
